From PMC5056396, “Hexokinase I N-terminal based peptide prevents the VDAC1-SOD1 G93A interaction and re-establishes ALS cell viability” (Scientific Reports, 2016) come the findings set out here.

The test system of assay [1] is VDAC1-SOD1 G93A interaction. The assay is described as follows: In vitro VDAC1-SOD1 G93A binding assay after pre-incubation with HK1 or peptide (western blot, densitometry). To be noted: for reduction of SOD1 G93A in VDAC1-bound fraction: 6.25 μM SOD1 G93A, n = 3. Also on record: species or system human. The source says: It is well known that HKs bind to VDAC1 in physiological conditions. We hypothesized that the available area for interaction with soluble proteins is a limited, exposed portion of the transmembrane pore VDAC1. […] For this reason, we repeated the VDAC1-SOD1 G93A binding assay, adding increasing concentrations of HK1. […] The reduction corresponds to the increase of HK1 in VDAC1-bound fraction, and it is proportional to the HK1 concentrations added in the assay (Fig. 3A).
In order to evaluate the NHK1 ability to interfere with VDAC1-SOD1 G93A interaction, a binding assay was performed. Increasing concentrations of NHK1 were added to immobilized-VDAC1, before SOD1 G93A addition. […] In fact, a 20-fold smaller concentration of peptide was used to obtain a result similar to that obtained by using the whole HK1 in the previous experiment (see Fig. 3A).
Recombinant VDAC1 was immobilized onto Ni-NTA Magnetic Agarose Beads (Qiagen) by exploiting its 6xHis-tag, according with manufacture’s protocol. For each experiment, a large excess of VDAC1 (30 μM) were incubated with 50 μL of beads suspension in Interaction Buffer (IB) (300 mM NaCl, 50 mM NaH2PO4, 20 mM imidazole, pH 8.0) to saturate all sites. Beads were collected using the magnet-based system DynaMag-2 (Life Technologies) and washed twice in Wash Buffer (300 mM NaCl, 50 mM NaH2PO4, 20 mM imidazole, 0.05% Tween-20, pH 6.3) to remove any excess of VDAC1. Beads-immobilized VDAC1 were incubated with 6.25 μM SOD1 WT or G93A, for 1 h at RT, under constant shaking, in 100 μL of IB. The assay was also performed by pre-incubating immobilized-VDAC1 for an extra 1 h with increasing concentration of purified human HK1 (0, 100, 200 μM) or NHK1 peptide (0, 5, 10, 25 μM), before SOD1 G93A addition. Beads were recovered using Dyna-Mag2 system and VDAC1-complexes were eluted from beads using 50 μL of Elution Buffer (300 mM NaCl, 50 mM NaH2PO4, 300 mM imidazole, pH 3.5). Any protein in VDAC1-bound and -unbound fractions was evaluated by western blot. Three independent experiments were performed for each condition tested.
For orientation: A western blot detects proteins with antibodies after separation by electrophoresis.

For assay [2], the system named is human VDAC1 reconstituted into PLB. As to the kind of experiment: VDAC1 channel conductance in planar lipid bilayer (PLB). The class given is biochemical. To be noted: for effect on single channel VDAC1 conductance: +25 mV, 0.2 μM SOD1 proteins or 15 μM peptide; for effect on voltage-dependence of VDAC1, triangular voltage ramps: symmetric 1 M KCl, ramps 0 to ±50 mV. The source says: Purified VDAC1 was reconstituted into a planar phospholipid bilayer (PLB) and its channel conductance was monitored before and after addition of SOD1 proteins, on cis or trans side of the membrane. […] Moreover, the effect of SOD1 proteins on the voltage-dependence of VDAC1 was monitored by triangular voltage ramps from 0 to ±50 mV. […] The current linearly follows the voltage applied up to about ±25 mV, where VDAC1 decreases its channel conductance through step-like transitions, remaining in low-conducting states.
Under standard experimental condition (1 M KCl and an applied potential of +25 mV) the VDAC1 channel was mainly in low-conducting closed states. […] The effect of NHK1 on the channel conductance is even more evident by plotting the amplitude values obtained in the current traces as a function of the number of events. While for VDAC1 alone the amplitude values appear as a main peak corresponding to the closed states (Fig. 4B), the presence of NHK1 caused a different distribution of events: an additional, different peak corresponding to the open state was visible, together with the closed states peak (Fig. 4C). […] The effect of NHK1 on the voltage-dependence of VDAC1 was monitored by triangular voltage ramps. […] In this experiment, indeed, VDAC1 completely loose, very precociously (already at ±15 mV applied), its ability to linearly respond to the applied voltage: a continuous switch from open to closed states was observed, especially at positive potentials. […] Upon NHK1 incubation, VDAC1 current transitions at positive voltages are very noisy and pass through different sub-conductance states (Fig. 4F).
Purified VDAC1 was reconstituted into a Planar Lipid Bilayer (PLB) apparatus (Warner Instruments, Hamden, CT, USA), previously described. Bilayers were prepared using asolectin (Sigma) dissolved in decane (Sigma) containing 1% chloroform (Sigma) across a 200 μm hole in a derlin cuvette (Warner Instruments). Experiments were performed in 1 M KCl, 10 mM Hepes, pH 7.0[40][46]. Control experiments using empty membrane and/or detergents were performed to avoid activity in any of the above solutions. Data were acquired using a Bilayer Clamp amplifier (Warner Instruments) at 100 μs/point, filtered at 200 Hz and analyzed offline using Clampfit 10.4 program set (Axon Instruments, Union City, CA, USA). Single channel analysis of VDAC1 was performed in presence or not of 0.2 μM of SOD1 WT or G93A, 15 μM NHK1 or ScNHK1 peptide.

In a further assay the test system is NSC34-SOD1G93A cells. As to the kind of experiment: Mitochondrial membrane potential (ΔΨm) by flow cytometry. Format: cell-based, mouse. To be noted: TMRM. As for the experimental part: To evaluate the NHK1 influence on mitochondrial functionality, mitochondrial membrane potential variation (ΔΨm) was assayed in the presence of NHK1 peptide or HK1. ΔΨm is related to the ATP production by oxidative phosphorylation; therefore, it is considered an indication of good mitochondrial and cellular health. Using mitochondria-targeted fluorescent probes, we estimated in flow cytometry the rate of mitochondrial depolarization. NSC34-SOD1G93A cells shown a high level of depolarized mitochondria compared to NSC34-SOD1WT. […] Similarly to NHK1 peptide, the expression of the whole HK1 reduced the depolarized mitochondria of about 15% (Fig. 7C).
ΔΨm was measured using tetramethyl-rhodamine methyl ester (TMRM) or Rhodamine 123 (RH123) (Molecular Probes) according to the excitation/emission wavelength of the transfection reporter or of the transfected fluorescent protein used. Both probes accumulates in active mitochondria due to their positive charge, whereby the reduction of ΔΨm leads to the release of fluorescent probes. Transfected NSC34-SOD1WT and NSC34-SOD1G93A cells were washed with PBS and incubated for 30 min at 37 °C with Krebs Ringer Buffered Saline supplemented with either 200 nM TMRM or 0.1 μg/mL RH123 and 20 μM Verapamil (as a multi drug-resistant pump inhibitor) (Sigma). Cells were then harvested and immediately analyzed by flow cytometry. Cells were excited by an air-cooled argon 488 nm laser, reading the GFP fluorescence of HK1-GFP or RH123 fluorescence in FL1 log mode; TMRM and mtDsRED used as transfection reporter of NHK1 peptide were read on FL3 log mode. Only viable cells detected by reading the scattering indicated as FSC and SSC, were considered for our analysis. The threshold physiological value of ΔΨm was estimated by using cells exposed to 1 μM of the uncoupling agent FCCP as a negative control. Data reported are representative for three sets of independent experiments, each performed at least in triplicate and based on 20.000 events for each group. Data were statistical analyzed by chi-square test. A p < 0,001 was taken as significant.
On the technique in general: In flow cytometry, cells or beads pass a laser one at a time.

“FAQLTIALAYY [ScNHK1, scramble peptide (…) synthetized and used as control, reference compound]”: the “effect on SOD1 G93A in VDAC1-bound fraction” value in assay [1] (scramble control, same assay) was “No similar effect”. The “effect on single channel VDAC1 conductance” value in assay [2] (1 M KCl) is listed as “No influence on the electrophysiological activity”. The “effect on voltage-dependence of VDAC1, triangular voltage ramps” value in assay [2] was “no difference was found”. Also, the “partial recovery of physiological ΔΨm” value in the assay on NSC34-SOD1G93A cells (NSC34-SOD1G93A expressing scramble peptide) is listed as “not”.
For the sequence “IAAQLLAYYFT [NHK1, peptide corresponding to residues 2–12 (N-terminal region) of human HK1 protein (…)]”, the “reduction of SOD1 G93A in VDAC1-bound fraction” value came to 40% in assay [1] (10 μM peptide pre-incubated 1 h) and 80% in assay [1] (25 μM peptide pre-incubated 1 h). Besides, the “effect on single channel VDAC1 conductance” value in assay [2] (1 M KCl) is “induced several fast and reversible events of VDAC1 low-conducting closed states”. Besides, in assay [2] (1 M KCl, upon peptide incubation), the “negative membrane potential at which regions of decreased slope already appear (I-V plot)” value is −10 mV. In addition, the “effect on voltage-dependence of VDAC1, triangular voltage ramps” value in assay [2] is reported as “strongly affected the channel voltage-dependence of VDAC1”. In addition, the “reduction of depolarized mitochondria” value in the assay with NSC34-SOD1G93A cells (NSC34-SOD1G93A expressing peptide, n = 3) is listed as 20%.
